Data: ChEMBL document CHEMBL5357085, “Synthesis and Evaluation of Natural and Unnatural Tetrahydrocannabiorcol for Its Potential Use in Neuropathologies” (J Nat Prod, 2024)
Activity calls are given as the source filed them. No cut-off for these calls is given here.

Assays:
SH-SY5Y [1] = test: Neuroprotective activity against corticosterone-induced cytotoxicity in human SH-SY5Y cells assessed as rescue of cell viability at 5 uM preincubated with compound for 24 hrs followed by corticosterone stimulation and measured after 48 hrs by MTT assay (reference value: 41%); format: functional; settings: time 72 hrs
[2] = Downregulation of corticosterone release in human SH-SY5Y cells at 10 uM incubated for 2 hrs by ELISA; format: functional
SH-SY5Y [3] = test: Cytotoxicity against human SH-SY5Y cells assessed as reduction in cell viability at 10 uM measured at 24 to 96 hrs by MTT assay; format: toxicity, cell-based; settings: time 24-96 hrs
SH-SY5Y [4] = test: Neuroprotective activity against corticosterone-induced cytotoxicity in human SH-SY5Y cells assessed as rescue of cell viability at 10 uM preincubated with compound for 24 hrs followed by corticosterone stimulation and measured after 48 hrs by MTT assay relative to control; format: functional; settings: time 72 hrs
SH-SY5Y [5] = test: Neuroprotective activity against corticosterone-induced cytotoxicity in human SH-SY5Y cells assessed as rescue of cell viability at 10 uM preincubated with compound for 24 hrs followed by corticosterone stimulation and measured after 48 hrs by MTT assay (reference value: 41%); format: functional; settings: time 72 hrs
SH-SY5Y [6] = test: Cytotoxicity against human SH-SY5Y cells assessed as reduction in cell viability at 1 to 50 uM measured after 48 hrs by MTT assay; format: toxicity, cell-based; settings: dose 1-50 µM
SH-SY5Y [7] = test: Neuroprotective activity against corticosterone-induced cytotoxicity in human SH-SY5Y cells assessed as BDNF concentration at 10 uM preincubated with compound for 2 hrs followed by corticosterone addition and measured 2 hrs after replacement with fresh media by ELISA (reference value: 5 pg/ml); format: functional
SH-SY5Y [8] = test: Neuroprotective activity against corticosterone-induced cytotoxicity in human SH-SY5Y cells assessed as rescue of cell viability at 20 uM preincubated with compound for 24 hrs followed by corticosterone stimulation and measured after 48 hrs by MTT assay (reference value: 41%); format: functional; settings: time 72 hrs
SH-SY5Y [9] = test: Neuroprotective activity against corticosterone-induced cytotoxicity in human SH-SY5Y cells assessed as […] at 10 uM preincubated with compound for 2 hrs followed by corticosterone addition and measured 2 hrs after replacement with fresh media by ELISA; format: functional
SH-SY5Y [10] = test: Neuroprotective activity against corticosterone-induced cytotoxicity in human SH-SY5Y cells assessed as rescue of cell viability at 10 uM preincubated with compound for 48 hrs followed by corticosterone stimulation and measured after 48 hrs by MTT assay relative to control; format: functional; settings: time 96 hrs
SH-SY5Y [11] = test: Neuroprotective activity against corticosterone-induced cytotoxicity in human SH-SY5Y cells assessed as rescue of cell viability at 10 uM preincubated with compound for 96 hrs followed by corticosterone stimulation and measured after 48 hrs by MTT assay relative to control; format: functional; settings: time 144 hrs
SH-SY5Y [12] = test: Neuroprotective activity against corticosterone-induced cytotoxicity in human SH-SY5Y cells assessed as rescue of cell viability at 10 uM preincubated with compound for 72 hrs followed by corticosterone stimulation and measured after 48 hrs by MTT assay relative to control; format: functional; settings: time 120 hrs
[13] = Upregulation of BDNF expression in human SH-SY5Y cells at 10 uM incubated for 2 hrs by ELISA; format: functional
SH-SY5Y [14] = test: Neuroprotective activity against corticosterone-induced cytotoxicity in human SH-SY5Y cells assessed as […] at 20 uM preincubated with compound for 2 hrs followed by corticosterone addition and measured 2 hrs after replacement with fresh media by ELISA; format: functional, cell-based
SH-SY5Y [15] = test: Neuroprotective activity against corticosterone-induced cytotoxicity in human SH-SY5Y cells assessed as rescue of BDNF expression at 20 uM preincubated with compound for 2 hrs followed by corticosterone addition and measured 2 hrs after replacement with fresh media by ELISA (reference value: 5 pg/ml); format: functional, cell-based
SH-SY5Y [16] = test: Cytotoxicity against human SH-SY5Y cells assessed as reduction in cell viability at 20 uM measured after 48 hrs by MTT assay; format: toxicity, cell-based
SH-SY5Y [17] = test: Inhibition of corticosterone release in human SH-SY5Y cells at 20 uM incubated for 2 hrs by ELISA; format: functional, cell-based
SH-SY5Y [18] = test: Upregulation of BDNF expression in human SH-SY5Y cells at 20 uM incubated for 2 hrs by ELISA; format: functional, cell-based
SH-SY5Y [19] = test: Neuroprotective activity against corticosterone-induced cytotoxicity in human SH-SY5Y cells assessed as rescue of cell viability at 20 uM preincubated with compound for 24 hrs followed by corticosterone stimulation and measured after 48 hrs by MTT assay; format: functional, cell-based; settings: time 72.0 hrs
SH-SY5Y [20] = test: Neuroprotective activity against corticosterone-induced cytotoxicity in human SH-SY5Y cells assessed as BDNF concentration at 5 nM preincubated with compound for 2 hrs followed by corticosterone addition and measured 2 hrs after replacement with fresh media by ELISA (reference value: 5 pg/ml); format: functional
SH-SY5Y [21] = test: Neuroprotective activity against corticosterone-induced cytotoxicity in human SH-SY5Y cells assessed as rescue of cell viability at 5 nM preincubated with compound for 24 hrs followed by corticosterone stimulation and measured after 48 hrs by MTT assay (reference value: 41%); format: functional; settings: time 72 hrs
[22] = Upregulation of BDNF expression in human SH-SY5Y cells at 5 nM incubated for 2 hrs by ELISA; format: functional
SH-SY5Y [23] = test: Cytotoxicity against human SH-SY5Y cells assessed as reduction in cell viability at 5 nM measured after 48 hrs by MTT assay; format: toxicity, cell-based; settings: 0.005 µM

Row | SMILES | Activity (SH-SY5Y [1]) | Activity [2] | Activity (SH-SY5Y [3]) | Activity (SH-SY5Y [4]) | Activity (SH-SY5Y [5]) | Activity (SH-SY5Y [6]) | Activity (SH-SY5Y [7]) | Activity (SH-SY5Y [8]) | Activity (SH-SY5Y [9]) | Activity (SH-SY5Y [10]) | Activity (SH-SY5Y [11]) | Activity (SH-SY5Y [12]) | Activity [13] | also measured
1 | CC1=C[C@@H]2c3c(O)cc(C)cc3OC(C)(C)[C@H]2CC1 | 83% | 0.43 pg/mL | Non-Toxic | 92% | 99% | Non-Toxic | 25 pg/mL | 101% | 5 pg/mL | 98% | 104% | 102% | 29 pg/mL | 
2 | C=C(C)[C@@H]1CCC(C)=C[C@H]1c1c(O)cc(CCCCC)cc1O [CANNABIDIOL] |  |  |  |  |  |  |  |  |  |  |  |  |  | Activity (SH-SY5Y [14]): inactive; Activity (SH-SY5Y [15]): inactive; Activity (SH-SY5Y [16]): Non-Toxic; inhibition (SH-SY5Y [17]): inactive; Activity (SH-SY5Y [18]): inactive; Activity (SH-SY5Y [19]): Active
3 | O=c1cc(-c2ccccc2)oc2c(O)c(O)ccc12 [7,8-DIHYDROXYFLAVONE] |  |  |  |  |  |  |  |  |  |  |  |  |  | Activity (SH-SY5Y [20]): 21 pg/mL; Activity (SH-SY5Y [21]): 86%; Activity [22]: 19 pg/mL; Activity (SH-SY5Y [23]): Non-Toxic
4 | CC1=C[C@H]2c3c(O)cc(C)cc3OC(C)(C)[C@@H]2CC1 | 79% | 0.22 pg/mL | Non-Toxic | 89% | 96% | Non-Toxic | 18 pg/mL | 97% | 7 pg/mL | 90% | 99% | 95% | 21 pg/mL | 
